Laboratory results taken from patent publication US7794835B2, “Fixing solution, capsule structure, fixing method, fixing device and image forming apparatus” (Ricoh Company, Ltd., priority 2004, dated 2010).

Assay: acute oral toxicity test LD50 (50 percent lethal dose)
Type: in vivo, rats or guinea pigs
Settings: worked out from LD50 in oral administration
Excerpt: A fixing solution according to the present invention includes aliphatic ester, held in a soluble state with respect to a solvent and having solubility or a swelling property with respect to a resin included in a toner. Thereby, a fixing solution, from which generation of odor is reduced, and by which a not-yet-fixed toner can be rapidly fixed, can be obtained. The aliphatic ester is applied as a softener softening a toner by dissolving or swelling the resin included in the toner. ‘Held in a soluble state’ means as being held in a size on the order of a molecule size on the order of […]. The aliphatic ester preferably has acute oral toxicity test LD50 larger than 3 g/kg in a viewpoint of a safety of humans.
For the first problem, LD50 is applied as a safety index, and a fixing solution was produced in such a manner that each of a solvent and a solute has LD50 not less than 3.0 g/kg. LD50 is a toxicity index of American Industrial Hygiene Association, and means a 50 percent lethal dose. This corresponds to an amount such that, 50% of the number of individuals are dead when a certain amount of test solute or a sample to test is given to rats or guinea pigs. […] Since this means that a 50% lethal dose for a weight of individuals of 1 kg is not less than 15 g, a presumable lethal dose of silicone oil for a human of 65 kg is not less than […] accordingly. […]

Row | Compound | presumable lethal dose for a human of 65 kg
1 | dimethylsiloxane | not less than 945 g

Assay: not given
Settings: acute oral toxicity; cited from earlier work

Row | Compound | LD50 [mg/kg]
2 | CCOCCOC(=O)CCC(=O)OCCOCC [diethoxy ethyl succinate] | 5000
3 | CCO [ethanol] | 20000
4 | CCCCCCCCCCCC(=O)OCCCCCC [hexyl laureate] | 8000
5 | CCCCCCCCCCCCCCCC(=O)OCC(C)C [isobutyl palmitate, reference compound] | 8000
6 | CCCCCCCCCCCCCCCC(=O)OC(C)C [isopropyl palmitate, reference compound] | 8000
7 | CCCCCCCCCCCCCC(=O)OC(C)C [isopropylmyristate] | 8000
8 | CCCCCCCC(=O)OC [methylcaprylate, reference compound] | 3000
9 | CCCCCCCCCCCC [n-dodecane] | 20000
10 | CCCCCC [n-hexane] | 28700
11 | [Cl-].[Na+] [salt, reference compound] | 3000

Same assay, conditions: acute oral toxicity; listed as dimethyl silicone oil; cited from earlier work

Row | Compound | LD50
12 | dimethylsiloxane | not less than 15 g/kg
